Reference: patent EP2150534B1, “ISOQUINOLINONE DERIVATIVES AS NK3 ANTAGONISTS” (H. Lundbeck A/S, priority 2007, dated 2008)
pIC50, pKi: −log10 of the molar value. Where two headings read alike, the source gives them in different places.

Assays:
human NK3 receptor [1] = molecular target: T1, human NK3 receptor (Homo sapiens, UniProt P29371); assay: NK3 receptor binding assay (SPA-based competition binding with 125I-NKB, membranes of BHK cells)
T1 construct: expressed in transfected cells; membranes prepared from them
T1 sequence (P29371 1-465): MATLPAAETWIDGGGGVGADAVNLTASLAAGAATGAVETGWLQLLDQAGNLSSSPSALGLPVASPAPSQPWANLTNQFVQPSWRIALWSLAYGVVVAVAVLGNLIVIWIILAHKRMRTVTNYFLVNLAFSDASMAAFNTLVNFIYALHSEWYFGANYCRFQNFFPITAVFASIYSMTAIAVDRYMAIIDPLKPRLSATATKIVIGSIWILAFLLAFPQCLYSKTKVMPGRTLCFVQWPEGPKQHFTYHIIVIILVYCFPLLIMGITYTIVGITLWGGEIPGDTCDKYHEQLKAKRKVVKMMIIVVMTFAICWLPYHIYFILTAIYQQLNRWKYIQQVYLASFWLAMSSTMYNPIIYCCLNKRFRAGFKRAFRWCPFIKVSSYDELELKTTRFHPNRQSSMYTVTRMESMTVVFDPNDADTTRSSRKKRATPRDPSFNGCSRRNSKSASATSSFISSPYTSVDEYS
Procedure: Membranepreparation: BHK cells stably expressing the human NK3 receptor were seeded in harvesting plates in Dulbeccos MEM containing GlutaMax (862 mg/l), 1 mM sodium pyruvate, 10% fetal calf serum, 1% Pen/Strep, I mg/ml G418 and were grown at 34 °C in a humidified atmosphere containing 10% CO2. To increase receptor expression, 10 µM trichotatin A was added to the media 24 hours before harvest of the cells at a confluency of app 90%. Prior to the harvesting, the cells were washed twice with PBS without Mg^2+ og Ca^2+ and subsequently scrapped of in 10 ml PBS pr harvesting plate. The cells suspension were centrifuged at 1500xG in three minutes before resuspension in 15 mM Tris-HCl pH 7,5 buffer containing 2 mM MgCl2; 0,3 mM EDTA and 1 mM EGTA (buffer A). The cell suspention was homogenised and subsequently centrifuged at 40000xG in 30 minutes. The membrane-pellet was resuspended in buffer A containing 250 mM sucrose, alliquoted and stored at - 80°C.
Affinity assay description: The assay was performed as a SPA-based competition-binding assay in a 50 mM Tris pH 7.4 assay buffer containing 120 mM NaCl, 3 mM MnCl2, 40 µg/ml bacitracin, 2 µg/ml Chymostatin, 1 µg/ml Phosphoramidon and 4 µg/ml Leupeptin. App 0.02 nM ^125I-NKB was mixed with test compounds before addition of 4 µg of the homogenised NK3 membrane preparation and 0,025 mg SPA beads in a total volume of 60 µl. The assay plate was subsequently under agitation incubated for 90 min at RT. The plate was centrifugated 10 minutes at 500xG and counted in a topcounter 5 minuttes pr well.
The non-specific binding constituted app 5 % of the total binding.
Data points were expressed in percent of the specific binding of ^125I-NKB and the IC50 values (concentration causing 50 percent inhibition of ^125I-NKB specific binding) were determined by non-linear regression analysis using a sigmoidal variable slope curve fitting. The dissociation constant (Ki) were calculated from the Cheng Prusoff equation (Ki = IG50/(1+(L/KD))), where the concentration of free radioligand L is approximated to the concentration of added ^125I-NKB in the assay (app 0,02 nM).
The KD of ^125I-NKB was determined to be 0,7 nM from three independent saturation assays each performed with duplicate determinations. Bmax was app 2 pmol/mg.

human NK3 receptor [2] = molecular target: T1, human NK3 receptor; assay: NK3 receptor efficacy and potency assay (FLIPR Calcium 4 assay, BHK cells; agonist and antagonist mode versus NKB); type: cell-based; conditions: read-out: Potency cIC50
Procedure: BHK cells stably expressing the human NK3 receptor were seeded in 100 µl media in black walled clear-base 96-wells plates (Costar) aiming at a confluency of 95-100% at the day of assay. The assay was performed according to the FLIPR Calcium 4 Assay kit (Molecular Devices). At the day of the assay, the media was removed and the cells were washed once with the HBSS buffer (Hanks BSS buffer, pH 7,4 containing 20 mM Hepes) before 100 µl of a solution of the calcium assay reagent dissolved in the HBSS buffer containing 2,5 mM probinicid was added to the cells. The plates were incubated for 60 min at 34°C, 10% CO2 before use in the FLIPR for examination of fluorescence.
For efficacy and potency evaluation of compounds, these were diluted in HBSS buffer prior to test. For test of agonist activity, 25 µl of the diluted compound solution was added and the plate was analyzed for 5 minutes in the FLIPR. […] The plates were subsequently analyzed for 5 minutes before the assay was terminated. The maximal increase in fluorescence over background following each ligand addition was determined.

[3] = Ki for the NK3 receptor, table of Example 9, 125I-NKB competition binding, read-out: Ki
[4] = table of Example 10, affinity obtained as described in Example 9, read-out: Affinity Ki

| SMILES | pKi (human NK3 receptor [1]; [3]) | pKi (human NK3 receptor [1]; [4]) | pIC50 (human NK3 receptor [2]) |
| --- | --- | --- | --- |
| O=C(NC(c1cccc(F)c1)C1CC1)c1c(CN2CCN(CCN3CCOCC3)CC2)n(-c2ccccc2)c(=O)c2ccccc12 (stereo not drawn) [Example 2hs] | 8.28 | 8.12 | 7.68 |
| O=C(NC(c1cccc(F)c1)C1CC1)c1c(CN2CCN(CCN3CCCCC3)CC2)n(-c2ccccc2)c(=O)c2ccccc12 (stereo not drawn) [Example 2hu, 1-Oxo-2-phenyl-3-[4-(2-piperidin-1-yl-ethyl)-piperazin-1-ylmethyl]-1,2-dihydro-isoquinoline-4-carboxylic acid [cyclopropyl-(3-fluoro-phenyl)-methyl]-amide] |  | 8.21 | 7.54 |
| O=C(NC(c1cccc(F)c1)C1CC1)c1c(CN2CCN(CCN3CCCC3)CC2)n(-c2ccccc2)c(=O)c2ccccc12 (stereo not drawn) [Example 2hv, 1-Oxo-2-phenyl-3-[4-(2-pyrrolidin-1-yl-ethyl)-piperazin-1-ylmethyl]-1,2-dihydro-isoquinolinc-4-carboxylic acid [cyclopropyl-(3-fluoro-phenyl)-methyl]-amide] |  | 7.85 | 7.46 |
| O=C(NC(c1cccc(F)c1)C1CC1)c1c(CN2CCN(Cc3ccncc3)CC2)n(-c2ccccc2)c(=O)c2ccccc12 (stereo not drawn) [Example 2hw, 1-Oxo-2-phenyl-3-(4-pyridin4-methyl-piperazin-1-ylmethyl)-1,2-dihydro-isoquinoline-4-carboxylic acid [cyclopropyl-(3-fluoro-phenyl)-methyl]-amide] |  | 8.09 | 7.20 |
| O=C(NC(c1cccc(F)c1)C1CC1)c1c(CN2CCC(O)(c3ccncc3)CC2)n(-c2ccccc2)c(=O)c2ccccc12 (stereo not drawn) [Example 2hx, 3-(4-Hydroxy-3,4,5,6-tetrahydro-2H-[4,4']bipyridinyl-1-ylmethyl)-1-oxo-2-phenyl-1,2-dihydro-isoquinoline-4-carboxylic acid [cyclopropyl-(3-fluoro-phenyl)-methyl]-amide] |  | 8.03 | 7.17 |
| O=C(NC(c1cccc(F)c1)C1CC1)c1c(CN2CCC(CCN3CCOCC3)CC2)n(-c2ccccc2)c(=O)c2ccccc12 (stereo not drawn) [Example 2hy, 3-[4-(2-Morpholin-4-yl-ethyl)-piperidin-1-ylmethyl]-1-oxo-2-phenyl-1,2-dihydro-isoquinoline-4-carboxylic acid [cyclopropyl-(3-fluoro-phenyl)-methyl]-amide] |  | 8.06 | 7.20 |
| COc1cccc(C2(O)CCN(Cc3c(C(=O)NC(c4cccc(F)c4)C4CC4)c4ccccc4c(=O)n3-c3ccccc3)CC2)c1 (stereo not drawn) [Example 2hz, 3-[4-Hydroxy-4-(3-methoxy-phenyl)-piperidin-1-ylmethyl]-1-oxo-2-phenyl-1,2-dihydro-isoquinoline-4-carboxylic acid [cyclopropyl-(3-fluoro-phenyl)-methyl]-amide] | 8.52 | 8.35 | 7.46 |
| CC(=O)N(C)C1(c2ccccc2)CCN(Cc2c(C(=O)NC(c3cccc(F)c3)C3CC3)c3ccccc3c(=O)n2-c2ccccc2)CC1 (stereo not drawn) [Example 2ia, 3-[4-(Acetyl-methyl-amino)-4-phenyl-piperidin-1-ylmethyl]-1-oxo-2-phenyl-1,2-dihydro-isoquinoline-4-carboxylic acid [cyclopropyl-(3-fluoro-phenyl)-methyl]-amide] |  | 7.92 | 7.00 |
| CC[C@H](NC(=O)c1c(CN2CCC(O)(c3cccc(OC)c3)CC2)n(-c2cccc(F)c2)c(=O)c2ccccc12)c1ccccc1 [Example 2iy, 2-(3-Fluoro-phenyl)-3-[4-hydroxy-4-(3-methoxy-phenyl)-piperidin-1-ylmethyl]-1-oxo-1,2-dihydro-isoquinoline-4-carboxylic acid ((S)-1-phenyl-propyl)-amide] |  | 7.77 | 7.04 |
| CC[C@H](NC(=O)c1c(CN2CCCNCC2)n(-c2ccccc2)c(=O)c2c(Cl)cccc12)c1ccccc1 [Example 2kh, 8-Chloro-3-[1,4]diazepan-1-ylmethyl-1-oxo-2-phenyl-1,2-dihydro-isoquinoline-4-carboxylic acid ((S)-1-phenyl-propyl)-amide] |  | 7.09 | 6.92 |
| CC[C@H](NC(=O)c1c(CN2CCC(O)(c3cccc(OC)c3)CC2)n(-c2ccccc2)c(=O)c2c(Cl)cccc12)c1ccccc1 [Example 2kn, 8-Chloro-3-[4-hydroxy-4-(3-methoxy-phenyl)-piperidin-1-ylmethyl]-1-oxo-2-phenyl-1,2-dihydro-isoquinoline-4-carboxylic acid ((S)-1-phenyl-propyl)-amide] |  | 8.06 | 7.39 |
| CC[C@H](NC(=O)c1c(CN2CCN(C(C)(C)C)CC2)n(-c2ccccc2)c(=O)c2c(Cl)cccc12)c1ccccc1 [Example 2ko, 3-(4-tert-Butyl-piperazin-1-ylmethyl)-8-chloro-1-oxo-2-phenyl-1,2-dihydro-isoquinoline-4-carboxylic acid ((S)-1-phenyl-propyl)-amide] |  | 7.96 | 8.25 |
| CC[C@H](NC(=O)c1c(CN2CCN(C(C)(C)C)CC2)n(-c2ccccc2)c(=O)c2c(F)cccc12)c1ccccc1 [Example 2lj, 3-(4-tert-Butyl-piperazin-1-ylmethyl)-8-fluoro-1-oxo-2-phenyl-1,2-dihydro-isoquinoline-4-carboxylic acid ((S)-1-phenyl-propyl)-amide] |  | 7.74 | 7.80 |
| CC(C)(C)N1CCN(Cc2c(C(=O)N[C@H](c3cccc(F)c3)C3CC3)c3cccc(F)c3c(=O)n2-c2ccccc2)CC1 [Example 2ll, 3-(4-tert-Butyl-piperazin-1-ylmethyl)-8-fluoro-1-oxo-2-phenyl-1,2-dihydro-isoquinoline-4-carboxylic acid [(S)-cyclopropyl-(3-fluoro-phenyl)-methyl]-amide] |  | 8.10 | 8.20 |
| CC[C@H](NC(=O)c1c(CN2CCC3(CC2)OCCO3)n(-c2ccccc2)c(=O)c2ccccc12)c1ccccc1 [Example 2u, 3-(1,4-Dioxa-8-aza-spiro[4.5]dec-8-ylmethyl)-1-oxo-2-phenyl-1,2-dihydro-isoquinoline-4-carboxylic acid ((S)-1-phenyl-propyl)-amide] |  | 7.05 | 7.02 |
| CC[C@H](NC(=O)c1c(CN2CCCC2=O)n(-c2ccccc2)c(=O)c2ccccc12)c1ccccc1 [Example 3a, 1-Oxo-3-(2-oxo-pyrrolidin-1-ylmethyl)-2-phenyl-1,2-dihydro-isoquiline-4-carboxylic acid ((S)-1-phenyl-propyl)-amide] | 7.14 | 7.06 | 6.57 |
| CC[C@H](NC(=O)c1c(CN2CCCC2=O)n(-c2ccccc2)c(=O)c2c(Cl)cccc12)c1ccccc1 [Example 3b] |  | 7.49 | 7.33 |
| O=C(N[C@H](c1cccc(F)c1)C1CC1)c1c(CN2CCCC2=O)n(-c2ccccc2)c(=O)c2c(Cl)cccc12 [Example 3d, 8-Chloro-1-oxo-3-(2-oxo-pyrrolidin-1-ylmethyl)-2-phenyl-1,2-dihydro-isoquinoline-4-carboxylic acid [(S)-cyclopropyl-(3-fluoro-phenyl)-methyl]-amide] |  | 7.80 | 7.34 |
